Assay results taken from publication PMC4117522, “Proteasome Inhibitors Alter Levels of Intracellular Peptides in HEK293T and SH-SY5Y Cells” (PLoS ONE, 2014).

Tested on: HEK293T cell aminopeptidase activity (Leu-AMC cleavage)
Experiment: Aminopeptidase assay with Leu-AMC in HEK293T cell extracts
Assay type: biochemical, human
Details: HEK293T cell extract, 10 µM inhibitor
Description: All enzyme assays described below were performed in the linear range of the assay, as determined from time-course studies. HEK293T cells were lysed by sonication in 50 mM TrisHCl buffer, pH 7.5, containing 40 mM KCl, 5 mM MgCl2, 0.5 mM ATP, and 1 mM DTT (Buffer 1).
To measure TPP2, the fluorescent substrate was Ala-Ala-Phe-AMC. Aminopeptidase (AP) assays were performed with Leu-AMC and Ala-AMC, which detect leucine aminopeptidase (LAP), puromycin-sensitive aminopeptidase (PSAP), and other enzymes. To measure the effect of aminopeptidase/proteasome inhibitors on cleavage of Ala-Ala-Phe-AMC and Leu-AMC, 1∶50 dilution of the cell extract was pre-incubated with the inhibitor and Buffer 1 for 30 min, followed by addition of 100 µM final concentration of the respective substrate. For Ala-AMC, the same dilution of the cell extract was pre-incubated with the inhibitor and 50 mM MOPS buffer, pH 7.5, containing 40 mM KCl, 5 mM MgCl2, 0.5 mM ATP, and 1 mM DTT (Buffer 2), followed by addition of 100 µM final concentration of the substrate. After incubation at 37°C for 1 hour, enzyme activity was quantified by fluorescence measurement of the substrate (380 nm excitation, 460 nm emission).
Figure 7 Effect of aminopeptidase inhibitors on Ala-AMC and Leu-AMC cleavage. HEK 293T cell extract (panels A–D) or recombinant PSAP (panels E–F) were treated with increasing concentrations of bestatin or puromycin for 30 minutes followed by the addition of substrate and incubation for 1 hour. Enzyme activity was determined by fluorescence measurement of AMC and expressed as percentage enzyme activity relative to the control without inhibitor. (A) Bestatin inhibition of HEK293T cell extract assayed with Ala-AMC. (B) Bestatin inhibition of HEK293T cell extract assayed with Leu-AMC. (C) Puromycin inhibition of HEK293T cell extract assayed with Ala-AMC. (D) Puromycin inhibition of HEK293T cell extract assayed with Leu-AMC. (E) Puromycin inhibition of purified PSAP assayed with Ala-AMC. (F) Puromycin inhibition of purified PSAP assayed with Leu-AMC. Error bars show standard error of mean (n = 4), points without error bars had error ranges smaller than the symbol size. Statistical analysis was performed using Student’s t-test: *, p≤0.05; **, p≤0.01; ***, p≤0.001; ns, no significant difference (p>0.05) versus the control.
Figure 8 Effect of proteasome inhibitors on Ala-AMC and Leu-AMC cleavage. HEK 293T cell extract or recombinant PSAP was treated with 10 µM of each of the proteasome inhibitors for 1 hour in addition to a 30 min pre-incubation without the substrate. Enzyme activity was determined by fluorescence measurement of AMC and expressed as percentage enzyme activity relative to the control without inhibitor. Panels A and B represent the effect of proteasome inhibitors on cleavage of Ala-AMC and Leu-AMC respectively, in HEK293T cell extract. […] Error bars show standard error of mean (n = 4). Statistical analysis was performed using Student’s t-test: *, p≤0.05; **, p≤0.01; ***, p≤0.001; ns, no significant difference (p>0.05) versus the control.

CN1C/C(=C/c2ccc(B(O)O)cc2)C(=O)/C(=C\c2ccc(B(O)O)cc2)C1 [AM114, reference compound]
effect on cleavage of Leu-AMC: without effect
